Experimental data as given in patent EP0064445A1, “N-substituted 2,4-dialkoxybenzene sulfon amides” (CHOAY S.A., priority 1981, dated 1982).

Tested on: souris SWISS
Assay: Interaction with pentobarbital: pentobarbital sleep time in mice
Assay type: in vivo
Details: 200 mg/kg oral; for Temps de sommeil (pentobarbital): male SWISS mice, lots of 10, 60 min before pentobarbital 40 mg/kg i.p.; for effet sur le sommeil au pentobarbital: result in words, mice
Description: Les essais sont réalisés sur des souris SWISS, EOPS de sexe mâle, pesant de 20 à 24 g, en provenance du centre d'élevage de LE GENEST.
Les animaux sont acclimatés au moins 8 jours à l'animalerie du laboratoire avant les essais.
Les lots sont de 10 souris par test et par produit.
A titre de produits de référence, pour effectuer les essais témoins, on a utilisé les trois substances suivantes : • - N-[(éthyl-1 pyrrolidinyl-2) méthy17méthoxy-2 sulfamoyl-5 benzamide connue sous la désignation sulpiride; • - N-[(éthyl-1 pyrrolidinyl-2)méthy17méthoxy-2 éthylsulfonyl-5 benzamide connue sous la désignation sultopride; • - N-(diéthylamino-2 éthyl) méthoxy-2 méthylsulfonyl-5 benzamide connue sous la désignation tiapride.
Les composés selon l'invention et les substances de référence sont administrés en suspension aqueuse dans l'eau ordinaire à 3% en gomme arabique pour la voie orale (tests d'interactions avec les barbituriques).
Le réactif pharmacologique à savoir le pentobarbital est administré en solution dans du soluté isotonique de NaCl.
Les volumes administrés sont de 0,5 ml d'une solution à 1,6 g/1 pour 20 g de poids corporel par voie intrapérito- néale (40 mg/kg).
Pour effectuer ces essais, on administre à des lots de 10 souris SWISS mâles les composés selon l'invention ou les produits de référence (à savoir sulpiride, sultopride ou tiapride) par voie orale à raison de 200 mg/kg. 60 minutes après l'ingestion des composés selon l'invention ou des produits de référence, on administre aux animaux le pentobarbital sous forme sodique tel que celui commercialisé sous la marque NEMBUTAL. On mesure ensuite : • - le temps d'endormissement, • - le temps de sommeil, et on détermine le paurcentage de variations en plus ou en moins du temps de sommeil. Les résultats de ces essais figurent dans le tableau II suivant.

Compound | Temps de sommeil (pentobarbital) | effet sur le sommeil au pentobarbital
COc1cc(OC)c(S(=O)(=O)NCCN2CCCC2)cc1Cl [Produit 882] | 176 ± 21 mn | –
COc1cc(OC)c(S(=O)(=O)NCCN2CCCCC2)cc1Cl [Produit 883] | 176 ± 12 mn | –
COc1cc(OC)c(S(=O)(=O)NCCN2CCOCC2)cc1Cl [Produit 884] | 150 ± 24 mn | –
COc1cc(OC)c(S(=O)(=O)NCCCN2CCCCC2)cc1Cl [Produit 888] | 140 ± 20 mn | –
COc1cc(OC)c(S(=O)(=O)NCCCN2CCOCC2)cc1Cl [Produit 889] | 156 ± 15 mn | –
COc1cc(OC)c(S(=O)(=O)NCCN2CCCC2)cc1Br [Produit 926] | 168 ± 30 mn | –
COc1cc(OC)c(S(=O)(=O)NCCN2CCCCC2)cc1Br [Produit 927] | 169 ± 26 mn | –
COc1cc(OC)c(S(=O)(=O)NCCN2CCOCC2)cc1Br [Produit 928] | 165 ± 24 mn | –
COc1cc(OC)c(S(=O)(=O)NCCCN2CCCCC2)cc1Br [Produit 932] | 142 ± 15 mn | –
COc1cc(OC)c(S(=O)(=O)NCCCN2CCOCC2)cc1Br [Produit 933] | 180 ± 32 mn | –
CCN1CCCC1CNC(=O)c1cc(S(N)(=O)=O)ccc1OC (stereo not shown) [sulpiride, reference compound] | – | tantôt potentialisateur, tantôt antagoniste
CCN1CCCC1CNC(=O)c1cc(S(=O)(=O)CC)ccc1OC (stereo not shown) [sultopride, reference compound] | – | potentialisateurs
CCN(CC)CCNC(=O)c1cc(S(C)(=O)=O)ccc1OC [tiapride, N-(diéthylamino-2 éthyl) méthoxy-2 méthylsulfonyl-5 benzamide, reference compound] | – | potentialisateurs
